Patent publication US8815814B2, “Cosmetic composition containing oligopeptides” (Cognis IP Management GmbH, priority 2010, dated 2014)
Residues, ends and D or L forms follow the SMILES beside them.

Legend:
[1] = system: collagen type I; assay: Collagen type I immuno-staining (ICC) in cultured human dermal fibroblasts; type: cell-based; conditions: peptide at 5.1 μg/ml; for % of staining occupation (collagen type I immuno-staining): human dermal fibroblasts, 72 hours incubation, sodium ascorbyl at 20 μg/ml, control 10.68 +/− 1, mean +/− SEM, 6 measures
Procedure: The peptide Acetyl-Val-Leu-Leu-Lys (SEQ ID NO:1)was incubated on human dermal fibroblasts cultured in vitro and the expression of the collagen type I was measured using an immunocytochemistry (ICC) method.
The human dermal fibroblasts were cultured within growth medium enriched with Foetal Calf Serum (FCS) at 10% and incubated for 2 days at 37° C. Then the growth medium was exchanged for a standard medium containing sodium ascorbyl at 5 μg/ml with FCS at 1% and with or without the Acetyl-Val-Leu-Leu-Lys (SEQ ID NO:1)peptide at 5.1 μg/ml. A positive control condition with sodium ascorbyl at 20 μg/ml was performed. Cells were incubated for 72 hours at 37° C. with the peptide. Cultured human dermal fibroblasts were fixed by acetone for 10 minutes at −20° C. and incubated for 1 hour at room temperature with a primary antibody against collagen type I [Abcam] diluted at 1/250. Fluorescein isothiocyanate (FITC) labelled secondary antibody [CliniSciences, France] was used for revelation. The obtained immuno-staining was observed using a confocal laser scanning microscope [TCS SPE, Leica, France] and quantified by an image analyzer [Quantimet Q5001W, Leica, France]. The staining occupation was evaluated. The results were presented as a mean +/−SEM (Standard Error of Mean) from 6 measures.

[2] = system: epithelial cells from rabbit cornea; conditions: Hara et al., Exp Eye Res, 2001; cited from earlier work
[3] = system: injured rabbit cornea; conditions: Hara et al., Exp Eye Res, 2001; cited from earlier work
[4] = system: collagen type XIV gene (COL14A1); assay: COL14A1 mRNA level by qRT-PCR in human dermal fibroblasts; type: cell-based; conditions: peptide at 1.0 μg/ml; for level of COL14A1 mRNA (control = 100%): vs EEF1A1 housekeeping gene, mean +/− SEM
Procedure: The peptide Acetyl-Val-Leu-Leu-Lys (SEQ ID NO:1) was incubated on human dermal fibroblasts cultured in vitro and the expression of the collagen type XIV gene (COL14A1) was measured using a quantitative reverse-transcription and polymerase chain reaction (qRT-PCR) method.
(§1) The human dermal fibroblasts were cultured within growth medium enriched with FCS at 10% and incubated for 1 day at 37° C. Then the growth medium was exchanged for a standard medium without FCS but with or without the Acetyl-Val-Leu-Leu-Lys (SEQ ID NO:1) peptide at 1.0 μg/ml. Cells were then incubated for 24 hours, 48 hours or 72 hours at 37° C. before extraction of total RNA. The level of COL14A1 mRNAs in the different conditions was evaluated comparatively to the level of EEF1A1 mRNA as housekeeping gene (qRT-PCR method) for each condition.
The results were calculated through the level of COL14A1 mRNA measured in the control condition (without peptide treatment) for the different incubation times as 100% and presented as a mean+/−SEM from 3 or 5 assays in duplicate.

[5] = system: tropoelastin gene (ELN); assay: ELN mRNA level by qRT-PCR in human dermal fibroblasts; type: cell-based; conditions: peptide at 1.0 μg/ml; for level of ELN mRNA (control = 100%): vs EEF1A1 housekeeping gene, mean +/− SEM
Procedure: The peptide Acetyl-Val-Leu-Leu-Lys (SEQ ID NO:1) was incubated on human dermal fibroblasts cultured in vitro and the expression of the tropoelastin gene (ELN) was measured using a qRT-PCR method.
as §1, with “were” for “were then”, “ELN” for “COL14A1”, “EEF1A 1” for “EEF1A1”, “condition. The results were calculated through the level of ELN mRNA measured in the control condition (without peptide treatment) as 100% and presented as a mean+/−SEM from 3 assays in duplicate.” for “condition.”

[6] = system: glutaredoxin-2 gene (GLRX2); assay: GLRX2 mRNA level by qRT-PCR in human dermal fibroblasts; type: cell-based; conditions: peptide at 1.0 μg/ml, 6 hours
Procedure: The peptide Acetyl-Val-Leu-Leu-Lys (SEQ ID NO:1) was incubated on human dermal fibroblasts cultured in vitro and the expression of the glutaredoxin-2 gene (GLRX2), involved in cellular anti-oxidative defenses) was measured using a qRT-PCR method.
The human dermal fibroblasts were cultured within growth medium enriched with FCS at 10% and incubated for 1 day at 37° C. Then the growth medium was exchanged for a standard medium without FCS with or without the Acetyl-Val-Leu-Leu-Lys (SEQ ID NO:1) peptide at 1.0 μg/ml. Cells were incubated for 6 hours at 37° C. before extraction of total RNA. The level of GLRX2 mRNAs was evaluated comparatively to the level of HPRT1 (hypoxanthine phosphoribosyltransferase 1) mRNA as housekeeping gene (qRT-PCR method) for each condition.
The results were calculated through the level of GLRX2 mRNA measured in the control condition (without peptide treatment) as 100% and presented as a mean +/−SEM from 3 assays in duplicated.

Compound | % of staining occupation (collagen type I immuno-staining) [1] | proliferation of epithelial cells from rabbit cornea (in words) [2] | wound healing activity on injured rabbit cornea (in words) [3] | effect on the level of collagen type I (in words) ([1]; compared with sodium ascorbyl at 20 μg/ml) | level of COL14A1 mRNA (control = 100%) ([4]; treatment duration 24 hours) | level of COL14A1 mRNA (control = 100%) ([4]; treatment duration 48 hours) | level of COL14A1 mRNA (control = 100%) ([4]; treatment duration 72 hours) | effect on the level of COL14A1 gene expression (in words) ([4]; detected after 24 hours, maintained during 3 days) | effect on the level of ELN gene expression (in words) [5] | level of ELN mRNA (control = 100%) ([5]; treatment duration 24 hours) | level of ELN mRNA (control = 100%) ([5]; treatment duration 48 hours) | level of ELN mRNA (control = 100%) ([5]; treatment duration 72 hours) | effect on the level of GLRX2 gene expression (in words) [6] | level of GLRX2 mRNA (control = 100%) ([6]; vs HPRT1 housekeeping gene, mean +/− SEM)
Sodium ascorbyl [reference compound] | 18.01 +/− 1.07 (**) % | – | – | – | – | – | – | – | – | – | – | – | – | –
Val-Leu-Leu-His (VLLH; tetrapeptide) | – | stimulate proliferation | significant wound healing activity | – | – | – | – | – | – | – | – | – | – | –
CC(=O)N[C@H](C(=O)N[C@@H](CC(C)C)C(=O)N[C@@H](CC(C)C)C(=O)N[C@@H](CCCCN)C(=O)O)C(C)C [Acetyl-Val-Leu-Leu-Lys, N-Acetyl-Val-Leu-Leu-Lys-OH] (Ac-VLLK-OH) | 31.07 +/− 2.22 (**) % | – | – | significantly increased | 175 +/− 23 (*) % | 220 +/− 32 (*) % | 213 +/− 27 (*) % | specifically and significantly increased | specifically and significantly increased | 127 +/− 11 (*) % | 143 +/− 10 (*) % | 217 +/− 49 (*) % | specifically increased | 145 +/− 20 (*) %
